Reference: ChEMBL document CHEMBL1129670, “Synthesis and structure-activity relationships of N-propyl-N-(4-pyridinyl)-1H-indol-1-amine (besipirdine) and related analogs as potential therapeutic agents for Alzheimer's disease” (J Med Chem, 1996)

Tests used:
Mus musculus [1] = species: Mus musculus; assay: animal or person
Description: Effective dose against administration in mice

Acetylcholinesterase = biological target: T1, Acetylcholinesterase (Rattus norvegicus, UniProt P37136)
T1 sequence (P37136 whole entry): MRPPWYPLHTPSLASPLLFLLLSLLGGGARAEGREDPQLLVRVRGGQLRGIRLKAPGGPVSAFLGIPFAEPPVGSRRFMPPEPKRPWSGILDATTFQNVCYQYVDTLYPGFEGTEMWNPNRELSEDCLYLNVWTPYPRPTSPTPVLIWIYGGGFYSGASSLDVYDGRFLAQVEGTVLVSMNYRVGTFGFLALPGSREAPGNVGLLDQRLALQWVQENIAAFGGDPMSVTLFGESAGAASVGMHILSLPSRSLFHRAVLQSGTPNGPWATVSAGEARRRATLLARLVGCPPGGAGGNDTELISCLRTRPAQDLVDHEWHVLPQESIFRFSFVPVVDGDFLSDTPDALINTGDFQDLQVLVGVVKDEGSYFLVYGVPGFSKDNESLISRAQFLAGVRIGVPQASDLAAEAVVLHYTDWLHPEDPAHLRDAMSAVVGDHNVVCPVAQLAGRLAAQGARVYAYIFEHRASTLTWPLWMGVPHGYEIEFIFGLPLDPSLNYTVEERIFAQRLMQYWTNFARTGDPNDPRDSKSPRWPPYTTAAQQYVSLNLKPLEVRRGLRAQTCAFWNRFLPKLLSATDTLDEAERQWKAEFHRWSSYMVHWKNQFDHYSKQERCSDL
Description: Inhibitory activity against acetylcholinesterase in rat striatal preparation

[2] = biological target: Sodium-dependent noradrenaline transporter (Homo sapiens, UniProt P23975)
Description: Inhibitory activity against norepinephrine (NE) uptake in rat whole brain synaptosome preparation

[3] = biological target: Muscarinic acetylcholine receptor; type: cell membranes, Membrane
Description: Inhibition of [3H]quinuclidinyl benzilate (QNB) binding from rat forebrain membranes in the presence of Zn

[4] = biological target: Muscarinic acetylcholine receptor; type: cell membranes, Membrane; remark: listed apart in the source
Description: Inhibition of [3H]quinuclidinyl benzilate (QNB) binding from rat forebrain membranes in the absence of Zn

[5] = biological target: T2, Adrenergic receptor alpha-1 (Rattus norvegicus, UniProt P15823+P23944+P43140); assay: Inhibitory activity against [3H]WB-4101 binding to Alpha-1 adrenergic receptor in rat whole brain membrane; type: cell membranes
T2 sequence (P15823 whole entry): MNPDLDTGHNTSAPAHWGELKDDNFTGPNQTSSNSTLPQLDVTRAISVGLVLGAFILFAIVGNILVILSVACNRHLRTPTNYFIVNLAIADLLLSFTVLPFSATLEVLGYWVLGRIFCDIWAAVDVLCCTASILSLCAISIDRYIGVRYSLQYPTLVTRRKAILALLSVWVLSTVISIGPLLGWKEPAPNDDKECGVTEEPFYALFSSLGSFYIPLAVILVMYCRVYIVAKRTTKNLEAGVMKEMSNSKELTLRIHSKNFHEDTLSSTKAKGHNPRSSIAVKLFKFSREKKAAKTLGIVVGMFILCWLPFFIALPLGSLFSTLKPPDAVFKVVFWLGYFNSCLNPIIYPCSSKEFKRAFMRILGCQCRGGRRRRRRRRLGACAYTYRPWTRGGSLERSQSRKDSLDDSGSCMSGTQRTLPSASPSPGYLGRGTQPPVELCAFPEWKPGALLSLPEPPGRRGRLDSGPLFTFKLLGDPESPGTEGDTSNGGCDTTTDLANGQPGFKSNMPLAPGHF
T2 sequence (P23944 whole entry): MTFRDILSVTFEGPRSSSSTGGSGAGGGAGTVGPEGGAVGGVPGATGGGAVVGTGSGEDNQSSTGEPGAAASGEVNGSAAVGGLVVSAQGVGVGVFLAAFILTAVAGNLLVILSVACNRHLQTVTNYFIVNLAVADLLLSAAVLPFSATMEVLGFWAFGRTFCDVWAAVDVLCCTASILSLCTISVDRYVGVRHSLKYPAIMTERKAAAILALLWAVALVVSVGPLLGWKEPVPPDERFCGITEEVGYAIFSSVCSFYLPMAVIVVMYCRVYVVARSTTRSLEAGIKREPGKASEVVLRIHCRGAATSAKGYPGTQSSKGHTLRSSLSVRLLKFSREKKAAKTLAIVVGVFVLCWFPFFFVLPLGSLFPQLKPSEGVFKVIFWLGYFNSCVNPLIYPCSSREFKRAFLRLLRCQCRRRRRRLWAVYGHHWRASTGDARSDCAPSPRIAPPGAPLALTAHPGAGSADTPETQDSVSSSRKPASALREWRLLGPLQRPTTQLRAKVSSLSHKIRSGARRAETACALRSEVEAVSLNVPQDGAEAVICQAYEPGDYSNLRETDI
T2 sequence (P43140 whole entry): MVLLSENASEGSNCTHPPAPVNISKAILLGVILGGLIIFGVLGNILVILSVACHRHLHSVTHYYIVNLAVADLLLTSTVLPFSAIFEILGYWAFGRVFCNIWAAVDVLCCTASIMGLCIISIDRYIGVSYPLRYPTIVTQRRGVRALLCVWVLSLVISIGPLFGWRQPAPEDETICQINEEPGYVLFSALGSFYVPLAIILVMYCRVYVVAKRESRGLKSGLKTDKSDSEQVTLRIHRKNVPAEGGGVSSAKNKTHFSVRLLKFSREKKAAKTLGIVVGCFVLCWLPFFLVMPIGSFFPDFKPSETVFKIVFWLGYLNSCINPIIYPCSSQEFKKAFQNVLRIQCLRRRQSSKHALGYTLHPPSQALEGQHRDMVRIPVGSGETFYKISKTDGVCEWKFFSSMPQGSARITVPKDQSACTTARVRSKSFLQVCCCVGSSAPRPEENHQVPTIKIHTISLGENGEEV

Mus musculus [6] = species: Mus musculus; details: dose 0.63 mg/kg; route subcutaneous
Description: Antagonistic activity against Scopolamine induced behavioral deficits in mice at dose 0.63 mg/kg sc

[7] = biological target: T3, Adrenergic receptor alpha-2 (Rattus norvegicus, UniProt P22086+P19328+P22909); assay: Inhibitory activity against [3H]clonidine binding to Alpha-2 adrenergic receptor in rat cortex
T3 sequence (P22086 whole entry): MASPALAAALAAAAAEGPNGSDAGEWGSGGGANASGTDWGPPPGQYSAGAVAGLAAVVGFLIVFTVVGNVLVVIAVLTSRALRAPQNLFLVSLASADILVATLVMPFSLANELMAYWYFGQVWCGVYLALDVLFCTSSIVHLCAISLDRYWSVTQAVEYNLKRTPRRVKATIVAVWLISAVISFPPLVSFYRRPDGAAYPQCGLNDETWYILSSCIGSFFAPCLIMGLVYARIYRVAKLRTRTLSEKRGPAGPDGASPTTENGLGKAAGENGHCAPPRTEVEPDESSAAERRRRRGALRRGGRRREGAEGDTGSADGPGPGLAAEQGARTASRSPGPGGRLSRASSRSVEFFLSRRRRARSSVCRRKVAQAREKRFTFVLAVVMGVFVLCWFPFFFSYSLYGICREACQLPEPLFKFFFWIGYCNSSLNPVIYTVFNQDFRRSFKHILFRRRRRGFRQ
T3 sequence (P19328 whole entry): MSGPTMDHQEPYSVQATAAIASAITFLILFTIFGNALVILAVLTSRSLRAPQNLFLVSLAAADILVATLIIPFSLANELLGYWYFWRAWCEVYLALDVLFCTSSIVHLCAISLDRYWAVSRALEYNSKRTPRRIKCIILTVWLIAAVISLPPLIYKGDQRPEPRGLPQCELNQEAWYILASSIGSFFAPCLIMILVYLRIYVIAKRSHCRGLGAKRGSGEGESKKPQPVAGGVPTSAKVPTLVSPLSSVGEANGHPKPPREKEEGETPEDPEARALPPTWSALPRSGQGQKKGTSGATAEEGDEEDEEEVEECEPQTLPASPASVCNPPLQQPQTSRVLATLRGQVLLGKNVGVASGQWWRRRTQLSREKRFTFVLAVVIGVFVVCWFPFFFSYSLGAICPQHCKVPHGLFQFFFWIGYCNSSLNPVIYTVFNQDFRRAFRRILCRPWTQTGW
T3 sequence (P22909 whole entry): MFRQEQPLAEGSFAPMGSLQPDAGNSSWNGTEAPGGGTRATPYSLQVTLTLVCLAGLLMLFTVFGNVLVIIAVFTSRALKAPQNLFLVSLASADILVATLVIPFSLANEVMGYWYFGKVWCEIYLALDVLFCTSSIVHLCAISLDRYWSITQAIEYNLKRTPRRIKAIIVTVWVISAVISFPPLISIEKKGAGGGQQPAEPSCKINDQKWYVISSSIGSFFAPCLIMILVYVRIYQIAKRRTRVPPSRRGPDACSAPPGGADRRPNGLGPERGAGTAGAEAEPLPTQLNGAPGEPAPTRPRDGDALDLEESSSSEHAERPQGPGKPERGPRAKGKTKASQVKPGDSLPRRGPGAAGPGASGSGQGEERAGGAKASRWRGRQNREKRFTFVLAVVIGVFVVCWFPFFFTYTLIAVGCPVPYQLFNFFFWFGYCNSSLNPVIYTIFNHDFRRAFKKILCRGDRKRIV

Mus musculus [8] = species: Mus musculus; assay: Antagonistic activity against Scopolamine induced behavioral deficits in mice; 1/6; type: functional
Mus musculus [9] = species: Mus musculus; details: dose 2.5 mg/kg; route subcutaneous
Description: Antagonistic activity against Scopolamine induced behavioral deficits in mice at dose 2.5 mg/kg sc

Mus musculus [10] = species: Mus musculus; assay: Antagonistic activity against Scopolamine induced behavioral deficits in mice; 3/9; type: functional
Mus musculus [11] = species: Mus musculus; details: dose 5 mg/kg; route subcutaneous
Mus musculus [12] = assay: Antagonistic activity against Scopolamine induced behavioral deficits in mice at dose 0.02 mg/kg sc; type: functional; details: route subcutaneous
Mus musculus [13] = species: Mus musculus
Mus musculus [14] = assay: Antagonistic activity against Scopolamine induced behavioral deficits in mice at dose 1.25 mg/kg sc; type: functional; details: route subcutaneous
Mus musculus [15] = assay: Antagonistic activity against Scopolamine induced behavioral deficits in mice at dose 5.0 mg/kg sc; type: functional; details: route subcutaneous
Mus musculus [16] = assay: Antagonistic activity against Scopolamine induced behavioral deficits in mice at dose […] sc; type: functional; details: route subcutaneous

Sequence of Sodium-dependent noradrenaline transporter (P23975 whole entry): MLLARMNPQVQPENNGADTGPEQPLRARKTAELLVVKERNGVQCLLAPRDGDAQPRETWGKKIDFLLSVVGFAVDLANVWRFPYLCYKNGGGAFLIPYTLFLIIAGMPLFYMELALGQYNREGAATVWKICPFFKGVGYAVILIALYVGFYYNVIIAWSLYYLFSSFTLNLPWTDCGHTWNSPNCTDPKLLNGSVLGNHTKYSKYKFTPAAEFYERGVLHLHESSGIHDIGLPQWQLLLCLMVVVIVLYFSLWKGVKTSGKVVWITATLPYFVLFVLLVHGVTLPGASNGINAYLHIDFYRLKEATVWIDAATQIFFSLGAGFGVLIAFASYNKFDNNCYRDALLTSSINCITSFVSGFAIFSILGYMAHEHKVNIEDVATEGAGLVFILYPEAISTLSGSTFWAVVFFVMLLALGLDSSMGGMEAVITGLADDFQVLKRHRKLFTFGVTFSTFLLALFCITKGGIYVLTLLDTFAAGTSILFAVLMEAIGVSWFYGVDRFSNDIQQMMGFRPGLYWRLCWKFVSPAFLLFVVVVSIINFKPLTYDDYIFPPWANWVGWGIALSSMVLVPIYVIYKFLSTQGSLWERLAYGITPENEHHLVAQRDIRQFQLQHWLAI

Compound	ED50 (Mus musculus [1]) [mg/kg]	IC50 (Acetylcholinesterase) [µM]	IC50 [2] [µM]	IC50 [3] [µM]	IC50 [4] [µM]	further results
Brc1ccc2c(ccn2Nc2ccncc2)c1	> 20	> 100	> 20	7.5	44	
O=C(O)/C=C/C(=O)O.c1cnn(Nc2ccncc2)c1	> 20	> 100	> 20	247	> 1000	
CCN(c1ccncc1)n1ccc2ccccc21	3.3	> 100	0.25	2.4	10	IC50 [5]: 3.3 µM; Response (Mus musculus [6]): 33%; IC50 [7]: 0.11 µM; Antagonism (Mus musculus [8]): 1
CCCN(c1ccncc1)n1c(C)cc2ccccc21	3.2	> 100	1.1	1.4	7.2	Response (Mus musculus [9]): 20%; Antagonism (Mus musculus [10]): 3; Response (Mus musculus [11]): 23%; IC50 [7]: 2.3 µM; Response (Mus musculus [12]): 20%
O=C(O)/C=C/C(=O)O.c1ccc2c(c1)cnn2Nc1ccncc1	3.8	> 100	17	29	128	Antagonism (Mus musculus [13]): 0
CCCN(c1ccncc1)n1ccc2cc(Cl)ccc21	> 20	> 100	1.9	2.4	5.8	Response (Mus musculus [14]): 20%; Antagonism (Mus musculus [8]): 1
CCCN(c1ccncc1)n1cc(C=O)c2ccccc21	18	20	2.2	1.8	3.3	Antagonism (Mus musculus [13]): 0
CCCN(c1ccncc1)n1cccn1.O=C(O)/C=C/C(=O)O	> 20	> 100	> 20	31	127	
CCCN(c1ccncn1)n1ccc2ccccc21	> 20	> 100	1.4	11	391	Antagonism (Mus musculus [8]): 1; Response (Mus musculus [15]): 23%
CCCN(c1ccncc1)n1cc2ccccc2n1	> 20	> 100	4.7	15	91	
O=C(O)/C=C/C(=O)O.c1ccc2c(c1)c1ccccc1n2Nc1ccncc1	2.3	> 100	1.4	8.2	20	Antagonism (Mus musculus [13]): 0
C=CCN(c1ccncc1)n1ccc2ccccc21	4.2	> 100	6.2	1	7.3	Antagonism (Mus musculus [13]): 0
c1ccc2nn(Nc3ccncc3)cc2c1	> 20	> 100	> 20	128	409	
COc1ccc2c(ccn2Nc2ccncc2)c1	> 20	> 100	> 20	7.5	44	
Cc1cn(Nc2ccncc2)c2ccccc12	1	> 100	12.8	35	82	Response (Mus musculus [16]): 33%; Antagonism (Mus musculus [8]): 1
O=[N+]([O-])c1ccc2c(ccn2Nc2ccncc2)c1	> 20	> 100	9.9	12	146	
Clc1cccc(Cl)c1NC1=NCCN1 [CLONIDINE]	0.36		> 20			Antagonism (Mus musculus [13]): 0
O=C1CCCN1CC#CCN1CCCC1 [OXOTREMORINE]				0.66	2.7	
COC(=O)[C@@H]1[C@H]2C[C@H]3c4[nH]c5ccccc5c4CCN3C[C@@H]2CC[C@@H]1O [YOHIMBINE]	> 8					
